From PubChem BioAssay AID248 (DTP/NCI, 2004)
Several values for one entry are separate records, joined by “and”; a condition that tells them apart may be missing. Identical values can stand only once. Inconclusive results and toxic doses are left out. Rule as the data show it: active = T/C of 150% or more; inactive = T/C below 125%.

Tested on: L1210 leukemia ip in BDF1 mice, survival T/C
Assay: NCI In Vivo Anticancer Drug Screen. Data for tumor model L1210 Leukemia (intraperitoneal) in B6D2F1 (BDF1) mice
Conditions: endpoint: mean survival time, higher = longer survival
Procedure, shortened: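 Antitumor effect is assessed in tumor-bearing animals. Survival in the compound arm is compared with a vehicle-dosed control arm and expressed as their quotient.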

[1] = dose: 100.0 mg/kg/injection, schedule: Q01DX001 (ip), vehicle: carboxymethylcellulose (CMC)
[2] = dose: 200.0 mg/kg/injection, schedule: Q01DX001 (ip), vehicle: carboxymethylcellulose (CMC)
[3] = dose: 400.0 mg/kg/injection, schedule: Q01DX001 (ip), vehicle: carboxymethylcellulose (CMC)
[4] = dose: 100.0 mg/kg/injection, schedule: Q04DX002 (ip), vehicle: saline with Tween-80
[5] = dose: 200.0 mg/kg/injection, schedule: Q04DX002 (ip), vehicle: saline with Tween-80
[6] = dose: 400.0 mg/kg/injection, schedule: Q04DX002 (ip), vehicle: saline with Tween-80
[7] = dose: 100.0 mg/kg/injection, schedule: Q01DX009 (ip), vehicle: saline
[8] = dose: 100.0 mg/kg/injection, schedule: Q04DX003 (ip), vehicle: saline
[9] = dose: 200.0 mg/kg/injection, schedule: Q01DX009 (ip), vehicle: saline
[10] = dose: 200.0 mg/kg/injection, schedule: Q04DX003 (ip), vehicle: saline
[11] = dose: 400.0 mg/kg/injection, schedule: Q04DX003 (ip), vehicle: saline
[12] = dose: 100.0 mg/kg/injection, schedule: Q01DX009 (ip), vehicle: Klucel (hydroxypropylcellulose) (HPC)
[13] = dose: 100.0 mg/kg/injection, schedule: Q04DX003 (ip), vehicle: Klucel (hydroxypropylcellulose) (HPC)
[14] = dose: 200.0 mg/kg/injection, schedule: Q01DX009 (ip), vehicle: Klucel (hydroxypropylcellulose) (HPC)
[15] = dose: 200.0 mg/kg/injection, schedule: Q04DX003 (ip), vehicle: Klucel (hydroxypropylcellulose) (HPC)
[16] = dose: 400.0 mg/kg/injection, schedule: Q01DX009 (ip), vehicle: Klucel (hydroxypropylcellulose) (HPC)
[17] = dose: 400.0 mg/kg/injection, schedule: Q04DX003 (ip), vehicle: Klucel (hydroxypropylcellulose) (HPC)
[18] = dose: 25.0 mg/kg/injection, schedule: Q04DX003 (ip), vehicle: saline
[19] = dose: 50.0 mg/kg/injection, schedule: Q04DX003 (ip), vehicle: saline
[20] = dose: 100.0 mg/kg/injection, schedule: Q04DX003 (ip), vehicle: saline with Tween-80
[21] = dose: 200.0 mg/kg/injection, schedule: Q04DX003 (ip), vehicle: saline with Tween-80
[22] = dose: 400.0 mg/kg/injection, schedule: Q04DX003 (ip), vehicle: saline with Tween-80

Measured: T/C

ClCCN(CCCl)c1ccc(C=Nc2ccc(-c3csc(Cc4ccccc4)n3)c(Cl)c2)cc1
inactive: [1] 93 % of control | [2] 88 % of control | [3] 87 % of control

O=C(NC(=S)c1cccc2ccccc12)Nc1ccc(Cl)cc1
inactive: [4] 97 % of control | [5] 89 % of control | [6] 89 % of control

NCCc1nc(C(=O)O)cs1
inactive: dose: 100.0 mg/kg/injection, schedule: Q01DX001 (ip), vehicle: saline 104 % of control | [7] 86 % of control | [8] 103 % of control | dose: 200.0 mg/kg/injection, schedule: Q01DX001 (ip), vehicle: saline 102 % of control | [9] 97 % of control | [10] 119 % of control | dose: 400.0 mg/kg/injection, schedule: Q01DX001 (ip), vehicle: saline 104 % of control | dose: 400.0 mg/kg/injection, schedule: Q01DX009 (ip), vehicle: saline 86 % of control | [11] 92 % of control

C#CCOC(=O)Nc1cccc(Cl)c1
inactive: [12] 95 % of control | [13] 97 % of control | [14] 97 % of control | [15] 106 % of control | [16] 95 % of control | [17] 90 % of control

Nc1ccc(NC=O)c(Cl)c1
inactive: [8] 102 % of control | [10] 108 % of control | [11] 102 % of control

COC(=O)C1CCC[N+](C)(C)C1 (stereo unspecified)
inactive: [18] 95 % of control | [19] 97 % of control | [8] 94 % of control

O=C(c1ccc(O)cc1O)c1cccc2ccccc12
inactive: [12] 95 % of control | [13] 93 % of control | [14] 97 % of control | [15] 95 % of control | [16] 99 % of control | [17] 93 % of control

Cc1cc(C)c(N2C(=O)CC(Sc3ccccc3N)C2=O)c(C)c1 (stereo unspecified)
inactive: [20] 105 % of control | [21] 109 % of control | [22] 98 % of control

c1ccc([C@H]2CN3CCSC3=N2)cc1
inactive: dose: 0.15 mg/kg/injection, schedule: Q01DX009 (ip), vehicle: saline 94 % of control | dose: 0.31 mg/kg/injection, schedule: Q01DX009 (ip), vehicle: saline 91 % of control | dose: 0.63 mg/kg/injection, schedule: Q01DX009 (ip), vehicle: saline 105 % of control | dose: 1.25 mg/kg/injection, schedule: Q01DX009 (ip), vehicle: saline 96 % of control | dose: 2.5 mg/kg/injection, schedule: Q01DX009 (ip), vehicle: saline 98 % of control | dose: 5.0 mg/kg/injection, schedule: Q01DX009 (ip), vehicle: saline 109 % of control | dose: 10.0 mg/kg/injection, schedule: Q01DX009 (ip), vehicle: saline 93 % of control | dose: 20.0 mg/kg/injection, schedule: Q01DX009 (ip), vehicle: saline 94 % of control

COC12CCCC1S(=O)(=O)C2 (stereo unspecified)
inactive: dose: 25.0 mg/kg/injection, schedule: Q01DX009 (ip), vehicle: saline with Tween-80 102 % of control | dose: 50.0 mg/kg/injection, schedule: Q01DX009 (ip), vehicle: saline with Tween-80 98 % of control

CC[CH2][Sn]([CH2]CC)([O]S(C)(=O)=O)[O]S(C)(=O)=O
inactive: dose: 1.56 mg/kg/injection, schedule: Q01DX009 (ip), vehicle: Klucel (hydroxypropylcellulose) (HPC) 115 % of control | dose: 3.12 mg/kg/injection, schedule: Q01DX009 (ip), vehicle: Klucel (hydroxypropylcellulose) (HPC) 97 % of control

CN(C)CCCN1c2ccccc2S(=O)c2ccc(Cl)cc21 (stereo unspecified)
inactive: dose: 12.5 mg/kg/injection, schedule: Q01DX009 (ip), vehicle: saline 96 % of control | dose: 25.0 mg/kg/injection, schedule: Q01DX009 (ip), vehicle: saline 102 % of control | [18] 109 % of control | dose: 50.0 mg/kg/injection, schedule: Q01DX009 (ip), vehicle: saline 111 % of control | [19] 106 % of control | [7] 96 % of control | [8] 95 % of control | [9] 107 % of control | [10] 103 % of control

O=C1C=C(c2ccccc2)C(c2ccccc2)C1=O (stereo unspecified)
inactive: dose: 50.0 mg/kg/injection, schedule: Q04DX002 (ip), vehicle: Klucel (hydroxypropylcellulose) (HPC) 106 % of control | dose: 100.0 mg/kg/injection, schedule: Q04DX002 (ip), vehicle: Klucel (hydroxypropylcellulose) (HPC) 98 % of control | dose: 200.0 mg/kg/injection, schedule: Q04DX002 (ip), vehicle: Klucel (hydroxypropylcellulose) (HPC) 95 % of control and 111 % of control | dose: 400.0 mg/kg/injection, schedule: Q04DX002 (ip), vehicle: Klucel (hydroxypropylcellulose) (HPC) 93 % of control

Cc1ccc(NC(=O)Nc2ccccc2Cl)c(C)c1
inactive: [1] 93 % of control | [2] 101 % of control | [3] 98 % of control

CCCCCCCCP(=O)(CCCCCC)CCCCCC
inactive: dose: 100.0 mg/kg/injection, schedule: Q01DX001 (ip), vehicle: saline with Tween-80 97 % of control | dose: 200.0 mg/kg/injection, schedule: Q01DX001 (ip), vehicle: saline with Tween-80 101 % of control | dose: 400.0 mg/kg/injection, schedule: Q01DX001 (ip), vehicle: saline with Tween-80 111 % of control

C#CCOCCC(=O)O
inactive: dose: 100.0 mg/kg/injection, schedule: Q04DX003 (ip), vehicle: acetone 106 % of control

CCOC(=O)c1cc2sccc2[nH]1
inactive: [20] 100 % of control | [21] 100 % of control | [22] 93 % of control

CCCCCCCCCCCCCCCC1=NN(c2ccccc2)C(=O)C1NC(=O)O (stereo unspecified)
inactive: [13] 107 % of control | [15] 97 % of control | [17] 98 % of control

CCN(CC)C(=O)c1cc([N+](=O)[O-])ccc1OCc1ccccc1
inactive: dose: 25.0 mg/kg/injection, schedule: Q04DX002 (ip), vehicle: saline with Tween-80 98 % of control | dose: 50.0 mg/kg/injection, schedule: Q04DX002 (ip), vehicle: saline with Tween-80 98 % of control | [4] 110 % of control and 91 % of control | [5] 89 % of control | [6] 95 % of control

COc1ccc(C(C)(O)c2cnc(C)n2Cc2ccccc2)cc1 (stereo unspecified)
inactive: [13] 99 % of control | [15] 97 % of control | [17] 95 % of control

CC1=C(C)Cc2c(OC(=O)c3ccccc3)ccc(OC(=O)c3ccccc3)c2C1
inactive: dose: 3.12 mg/kg/injection, schedule: Q01DX009 (ip), vehicle: water 101 % of control | dose: 6.25 mg/kg/injection, schedule: Q01DX009 (ip), vehicle: water 101 % of control | dose: 12.5 mg/kg/injection, schedule: Q01DX009 (ip), vehicle: water 96 % of control | dose: 25.0 mg/kg/injection, schedule: Q01DX009 (ip), vehicle: water 98 % of control and 119 % of control | dose: 50.0 mg/kg/injection, schedule: Q01DX009 (ip), vehicle: water 101 % of control | dose: 100.0 mg/kg/injection, schedule: Q01DX009 (ip), vehicle: water 90 % of control | dose: 200.0 mg/kg/injection, schedule: Q01DX009 (ip), vehicle: water 90 % of control | dose: 400.0 mg/kg/injection, schedule: Q01DX009 (ip), vehicle: water 97 % of control

CN(C)C1(Cc2ccc(Cl)cc2)c2ccccc2-c2ccccc21
inactive: dose: 100.0 mg/kg/injection, schedule: Q01DX009 (ip), vehicle: other 94 % of control | dose: 100.0 mg/kg/injection, schedule: Q04DX003 (ip), vehicle: other 105 % of control | dose: 200.0 mg/kg/injection, schedule: Q01DX009 (ip), vehicle: other 98 % of control | dose: 200.0 mg/kg/injection, schedule: Q04DX003 (ip), vehicle: other 100 % of control | dose: 400.0 mg/kg/injection, schedule: Q01DX009 (ip), vehicle: other 104 % of control | dose: 400.0 mg/kg/injection, schedule: Q04DX003 (ip), vehicle: other 115 % of control
